Results published in publication PMC8498006 (Advances in Redox Research, 2021).

Tests used:
[1] = target: SARS-CoV-2 M^pro (MBP-tagged main protease) (Severe acute respiratory syndrome coronavirus 2, UniProt P0DTD1); assay: biochemical; conditions: for suppressive effect on the protease activity at 20 µM: 20 µM phytochemical, 0.5 µM enzyme, 37°C 30 min
[2] = target: T1, SARS-CoV-2 M^pro (MBP-cleaved) (Severe acute respiratory syndrome coronavirus 2, UniProt P0DTD1); assay: Quinone detection on blotted membrane by redox-cycling; format: binding; conditions: 2.5 µM phytochemical, 1 mM GSH
[3] = target: T1, SARS-CoV-2 M^pro (MBP-cleaved); assay: Intact MS of M^pro after incubation with phytochemicals; format: binding; conditions: 0.5 µM enzyme; for covalent adduct on M^pro by intact MS: 1 µM phytochemical, 37°C 30 min
[4] = target: T1, SARS-CoV-2 M^pro (MBP-cleaved); assay: Free thiols in the enzyme by biotin incorporation; conditions: iodoacetyl-LC-biotin labelling
[5] = target: T1, SARS-CoV-2 M^pro (MBP-cleaved); assay: Enzyme activity of MBP-cleaved M^pro with EGCG/myricetin, with or without GSH; format: biochemical; conditions: 0.5 µM enzyme

Compound	suppressive effect on the protease activity at 20 µM [1]	covalent adduct on M^pro by intact MS [3]	IC50 [1] [µM]	also measured
COc1ccc(-c2cc(=O)c3c(O)c(OC)c(O[C@@H]4O[C@H](CO[C@@H]5O[C@@H](C)[C@H](O)[C@@H](O)[C@H]5O)[C@@H](O)[C@H](O)[C@H]4O)cc3o2)cc1 [pectolinarin]	did not show suppressive effect	–	–	–
O=c1c(O)c(-c2cc(O)c(O)c(O)c2)oc2cc(O)cc(O)c12 [myricetin]	considerably inhibited	One or two molecule(s)	–	quinone staining in the presence of GSH [2]: canceled; dose dependence of adduction by intact MS ([3]; 0–5 µM): dose-dependently observed; free thiols in the M^pro with increasing concentration [4]: decreased; enzyme activity with increasing concentration ([5]; 0–5 µM, substrate reaction 15 min): decreased accordingly; enzyme activity loss in the presence of GSH ([5]; 2.5 µM phytochemical, 1 mM GSH, 30 min): canceled
O=c1cc(-c2ccccc2)oc2cc(O)c(O)c(O)c12 [baicalein]	–	covalent adducts were not observed	–	–
Oc1cc(O)cc(/C=C/c2ccc(O)c(O)c2)c1 [piceatannol]	–	One or two molecule(s)	13.8	–
C=CCN=C=S [AITC, Allyl isothiocyanate]	–	–	33.3	–
O=c1c(O)cc([C@H]2Oc3cc(O)cc(O)c3C[C@H]2O)cc2c([C@H]3Oc4cc(O)cc(O)c4C[C@H]3O)cc(O)c(O)c12 [theaflavin]	considerably inhibited	One or two molecule(s)	6.1	–
C[C@@H]1O[C@@H](OC[C@H]2O[C@@H](Oc3c(-c4ccc(O)c(O)c4)oc4cc(O)cc(O)c4c3=O)[C@H](O)[C@@H](O)[C@@H]2O)[C@H](O)[C@H](O)[C@H]1O [rutin, quercetin-3-O-rutinoside]	did not show suppressive effect	–	–	–
myricitrin	–	covalent adducts were not observed	–	–
S=C=NCc1ccccc1 [BITC, benzyl isothiocyanate]	considerably inhibited	–	4.5	–
OC[C@H]1O[C@@H](Oc2cc3c(O)cc(O)cc3[o+]c2-c2ccc(O)c(O)c2)[C@H](O)[C@@H](O)[C@@H]1O.[Cl-] [cyanidine-3-glucoside, Cyanidine-3-glucoside chloride]	did not show suppressive effect	–	–	–
S=C=NCCc1ccccc1 [PEITC, phenethyl isothiocyanate]	–	–	14.2	–
O=c1c(O)c(-c2ccc(O)c(O)c2)oc2cc(O)cc(O)c12 [quercetin]	did not show suppressive effect	–	–	–
O=c1c(O)c(-c2ccc(O)cc2)oc2c(O)c(O)cc(O)c12 [herbacetin]	–	covalent adducts were not observed	19.2	–
